Data from patent US7173030B2, “Inhibitors of 11-β-hydroxy steroid dehydrogenase type 1” (Biovitrum AB, priority 2003, dated 2007).

Experiments:
[1] = target: T1, human 11-β-hydroxysteroid dehydrogenase type-1 enzyme (11-β-HSD1) (Homo sapiens, UniProt P28845); experiment: Scintillation proximity assay: human 11-β-HSD1 enzyme assay; format: biochemical; conditions: Ki calculated from IC50 (Cheng Prushoff)
T1 construct: made in house; host or cells: Pichia pastoris
From the text: [1,2(n)-^3H]-cortisone was purchased from Amersham Pharmacia Biotech. Anti-cortisol monoclonal mouse antibody, clone 6D6.7 was obtained from Immunotech and Scintillation proximity assay (SPA) beads coated with monoclonal antimouse antibodies were from Amersham Pharmacia Biotech. NADPH, tetrasodium salt was from Calbiochem and glucose-6-phosphate (G-6-P) was supplied by Sigma. The human 11-β-hydroxysteroid dehydrogenase type-1 enzyme (11-β-HSD1) was expressed in Pichia pastoris. 18-β-glycyrrhetinic acid (GA) was obtained from Sigma. The serial dilutions of the compounds were performed on a Tecan Genesis RSP 150. […]
The multiplication of plates was done on a WallacQuadra. The amount of the product [^3H]-cortisol, bound to the beads was determined in a Packard, Top Count microplate liquid scintillation counter. […]
The plates were covered with plastic film and incubated on a shaker for 30 minutes, at room temperature, before counting. The amount of [^3H]-cortisol, bound to the beads was determined in a microplate liquid scintillation counter.
The calculation of the Ki values for the inhibitors was performed by use of Activity Base. The Ki value is calculated from IC50 and the Km value is calculated using the Cheng Prushoff equation (with reversible inhibition that follows the Michaelis-Menten equation): […] [Cheng, Y. C.; Prushoff, W. H. Biochem. Pharmacol. 1973, 22, 3099–3108]. […]

intraocular pressure = conditions: normal subjects; Raus et al 2001; cited from earlier work
[2] = test system: hepatic insulin sensitivity; conditions: healthy human volunteers; Walker et al. 1995; cited from earlier work
Diabetic KKA^y mice = experiment: Wound healing of surgical wounds in diabetic KKA^y mice; format: in vivo; conditions: oral twice daily 200 mg/kg/day for 3.5 days
Method: Diabetic KKA^y mice underwent surgery during anesthesia whereby a catheter was inserted in the jugularis vein. Oral treatment twice daily (200 mg/kg/day) with the 11β-HSD1 inhibitor BVT.2733 (disclosed as Example 172A in WO 01/90090), or vehicle started 4–6 days later and continued for 3.5 days.
Advantageous effects on wound healing of the surgical wounds were observed during treatment.

T1 sequence (P28845 whole entry): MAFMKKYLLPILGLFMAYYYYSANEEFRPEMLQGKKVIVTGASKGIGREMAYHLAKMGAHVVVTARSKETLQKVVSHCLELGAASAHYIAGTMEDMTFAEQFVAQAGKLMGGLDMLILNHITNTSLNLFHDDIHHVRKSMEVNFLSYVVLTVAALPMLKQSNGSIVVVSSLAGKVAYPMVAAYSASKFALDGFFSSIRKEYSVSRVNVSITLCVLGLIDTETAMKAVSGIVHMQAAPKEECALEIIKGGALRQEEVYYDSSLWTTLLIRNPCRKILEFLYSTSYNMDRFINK

For Cc1ccc([N+](=O)[O-])cc1S(=O)(=O)Nc1nc(C(C)C)ns1 [Example 80, N-(3-isopropyl-1,2,4-thiadiazol-5-yl)-2-methyl-5-nitrobenzenesulfonamide], the Ki [1] was 321 nM.
Molecule CC(C)c1nnc(NS(=O)(=O)c2ccc(Oc3ccccc3)cc2)s1 [Example 244, N-(5-isopropyl-1,3,4-thiadiazol-2-yl)-4-phenoxybenzenesulfonamide] has a Ki [1] of 219 nM.
In the case of CC1(C)[C@@H](OC(=O)CCC(=O)O)CC[C@]2(C)[C@H]3C(=O)C=C4[C@@H]5C[C@@](C)(C(=O)O)CC[C@]5(C)CC[C@@]4(C)[C@]3(C)CC[C@@H]12 [carbenoxolone], the “reduction of intraocular pressure” value (intraocular pressure) is given as 20% and the hepatic insulin sensitivity [2] is given as “improved”.
In the case of BVT.2733, the “animals showing complications during treatment period” value (Diabetic KKA^y mice; jugular catheter surgery, vehicle 58%) is reported as 24% and the “effects on wound healing of the surgical wounds” value (Diabetic KKA^y mice; compared to control mice) is reported as “less pus in the wound, as well as better wound strength”.
